Experimental findings from patent publication US10457707B2, “Substituted urea depsipeptide analogs as activators of the CLPP endopeptidase” (priority 2015, dated 2019) are described below.

*1 amine or outer side, *2 acyl side, *3 side chain or, on linkers, in order; H or OH if unused. Where a SMILES comes first, the peptide text is derived from it. Bridges are numbered along the chain shown (N, C = ends). [ ]: non-standard residue; d: D form. The star is where a group is joined. Piperazine(2S-CO,4-Me) = CN1CCN[C@H](C(=O)O)C1; Phe(3,5-F2) = N[C@@H](Cc1cc(F)cc(F)c1)C(=O)O; NH(4-Cl-2-F-phenyl) = Fc1cc(Cl)ccc1N*; Pro(4R-Me) = C[C@H]1CN[C@H](C(=O)O)C1; CO = O=C([*:1])[*:2]

The target of one experiment is T1, Sa-ClpP (Staphylococcus aureus, UniProt Q2G036).
T1 construct: made in house; host or cells: E. coli BL21(DE3)
T1 sequence (Q2G036 1-195): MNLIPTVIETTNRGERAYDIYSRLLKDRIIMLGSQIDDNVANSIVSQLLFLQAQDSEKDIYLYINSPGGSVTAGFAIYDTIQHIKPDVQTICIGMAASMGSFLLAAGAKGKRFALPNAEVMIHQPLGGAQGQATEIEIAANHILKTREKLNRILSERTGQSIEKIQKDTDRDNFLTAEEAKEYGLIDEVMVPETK
Kind of experiment: ADEP displacement fluorescence polarization assay (FP probe ADEP 2591). The format is binding. Summed up:
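Probe displacement was measured in mP after compounds sat 120 min at room temperature with pre-equilibrated (1 h) Sa-ClpP (15 μM) and ADEP 2591 FP probe (50 nM) in pH 8.0 Tris-HCl with 2% DMSO. Data were scaled between DMSO and 200 μM ADEP 2378 and fit by variable-slope log-inhibitor regression.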
For orientation: Fluorescence polarisation rises when a labelled molecule tumbles more slowly, as on binding a larger partner.

Experiment [1] relates to Enterococcus faecalis, ATCC 33186. Kind of experiment: Minimal inhibitory concentration assay (microbroth dilution). Format: cell-based. The settings on record: Enterococcus faecalis, ATCC33186; read-out: Minimal Inhibitory Concentrations E. faecalis ATCC 33186. The method, boiled down:
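Compound is serially diluted two-fold in the appropriate broth, and bacterial inoculum at about 10^5 cfu/mL is added so the highest final concentration is 200 μM. Plates stay overnight at 37 °C under aerobic conditions before growth is scored by eye.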
On the technique in general: Dilution methods test growth across graded concentrations, often in twofold steps.

As for `C[C@@H]1C[C@H]2C(=O)OC[C@H](NC(=O)[C@H](Cc3cc(F)cc(F)c3)NC(=O)Nc3ccc(Cl)cc3F)C(=O)N3CCC[C@H]3C(=O)N3CCN(C)C[C@H]3C(=O)N[C@@H](C)C(=O)N2C1` [Compound 330, (S)-2-(3-(4-chloro-2-fluorophenyl)ureido)-3-(3,5-difluorophenyl)-N-((6aS,12S,15aS,17R,21S,23aS)-2,17,21-trimethyl-6,11,15,20,23-pentaoxooctadecahydro-2H,6H,11H,15H-pyrazino[2,1-i]dipyrrolo[2,1-c:2′,1′-l][1]oxa[4,7,10,13]tetraazacyclohexadecin-12-yl)propanamide] ({NH(4-Cl-2-F-phenyl)-CO}-[Phe(3,5-F2)]SP[Piperazine(2S-CO,4-Me)]A[Pro(4R-Me)]; ester 2-C), the concentration for half-maximal inhibition (IC50) (usually the concentration needed to halve the response being measured) at Sa-ClpP turned out to be 3.74 ± 0.2 µM. Moreover, in experiment [1], the MIC is below 0.02 µM.
